From PubChem BioAssay AID977622 (Broad Institute, 2014) come the findings set out here.

Records with an inconclusive call do not appear. Calls of active or inactive are those of the source.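 How the source made its calls: active means Green signal of the normal strain falls at least twice as much as red signal of the resistant mutant, with overall culture growth loss under a set limit; inconclusive means no clear call, values can overlap the other calls; inactive means the rest.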

A word on the AC50: it is the midpoint of the concentration-response curve, whichever way the signal moves.

This assay has as its system E. coli WT ribosome GFP fluorescence, mixed culture, 24 h. Briefly: growth inhibition of wild-type GFP E. coli, dose response, h38 mutant RFP, cherry-pick (AID 977622).
The mark [1] stands for this setting: E. coli mixed culture, 24 h, measured here: total growth OD600.

Take `CC(=O)OC(COc1cccc(C)c1)Cn1cnc2ccccc21` (stereo unspecified): the AC50 was > 100 µM (inactive). The same compound gave an AC50 under setting [1] of 50.7 µM.

In the case of `COc1ccc(OC2C(=O)N(Cc3ccc4c(c3)OCO4)C2c2sccc2C)cc1` (stereo unspecified), the AC50 is > 100 µM (inactive).

As for `COc1cccc(C(=O)NC2CC3CCCC(C2)N3S(=O)(=O)c2ccccc2)c1` (stereo unspecified), the AC50 was > 100 µM (inactive). This compound had an AC50 under setting [1] of 41.4 µM.

`Cc1ccc(-c2cc(-c3ccc(C)cc3)[n+](-c3ccc(C(=O)[O-])cc3)c(-c3ccc(C)cc3)c2)cc1`: the AC50 is > 100 µM (inactive).

Turning to `Cc1ccc(CNC(=O)c2ccc(Br)o2)cc1`, the AC50 is > 100 µM (inactive).

As to `CN1c2ccc(C#Cc3cccnc3)cc2[C@@H]2[C@@H](CCN2C(=O)c2cccc(F)c2)[C@H]1CO`, the AC50 was > 100 µM (inactive).

On to `Cc1cc(NC(=O)c2cccc(Oc3ccccc3)c2)n[nH]1`, for which the AC50 is > 100 µM (inactive). Besides, under setting [1], the AC50 came to 40.6 µM.

`S=c1nc(-c2cc(Cl)cc(Cl)c2)[nH][nH]1`: the AC50 was > 100 µM (inactive).

As for `CCOC(=O)C1CCCN(C(=O)c2csc(-c3ccc4c(c3)CCO4)n2)C1` (stereo unspecified), the AC50 was > 100 µM (inactive).

As for `CNC(=O)c1ccsc1NC(=O)c1ccc2c(c1)CCCC2`, the AC50 is > 100 µM (inactive). The compound also displayed an AC50 under setting [1] above 100 µM.

As to `CC(=O)Oc1c(Cl)cc(N(C(C)=O)S(=O)(=O)c2ccccc2)c2ccccc12`, the AC50 was > 100 µM (inactive). In addition, the AC50 under setting [1] is 47.2 µM.

Consider `COc1ccc(OC)c(N(CC(=O)Nc2ccccc2F)S(=O)(=O)c2ccccc2)c1`, for which the AC50 is > 100 µM (inactive).

For the compound `CN1OC[C@@H]2CN(C(=O)c3ccco3)[C@H](c3ccc(-c4ccc(C#N)cc4)cc3)C[C@@H]21`, the AC50 under setting [1] is above 100 µM.

In turn, `COC(=O)c1ccc(CCc2cc(O)c(Br)cc2O)cc1` gave an AC50 under setting [1] of 46.5 µM.

In the case of `O=C(Cn1c(CO)nc2ccccc21)NCCc1ccc(F)cc1`, the AC50 was > 100 µM (inactive).

The compound `Cc1ccc(S(=O)(=O)Nc2ccccc2CNc2cccc(C)n2)cc1` yielded an AC50 under setting [1] above 100 µM.

For `CCCC[n+]1ccn(-c2nc3ccccc3nc2[N-]S(=O)(=O)c2cccs2)c1`, the AC50 is > 100 µM (inactive). Also, the AC50 under setting [1] is above 100 µM.

With `CCOC(=O)c1cccc(OS(=O)(=O)Cc2ccccc2)c1`, the AC50 is > 100 µM (inactive). Besides, under setting [1], the AC50 was above 100 µM.

On to `O=C(Nc1cccc(O)c1)c1cc(-c2ccccc2Cl)on1`, for which the AC50 was > 100 µM (inactive).

Turning to `O=C(O)c1ccc2c(c1)N(Cc1ccc(F)cc1)C(=O)c1ccccc1S2`, the AC50 was > 100 µM (inactive).

Consider `Cc1cccc(S(=O)(=O)Nc2ccc(-c3cn4ccccc4n3)cc2)c1`, for which the AC50 is > 100 µM (inactive). The AC50 under setting [1] was 26.7 µM.

On to `O=C(CSc1nnc(COc2cccc3cccnc23)o1)c1ccc(F)cc1`, for which, under setting [1], the AC50 is above 100 µM.

The compound `COc1ccc(CN2CCC3CC2c2cc(Cl)ccc23)cc1` (stereo unspecified) came in with an AC50 under setting [1] above 100 µM.

With `COc1ccccc1NS(=O)(=O)c1cc(C(=O)Nc2ccc(S(=O)(=O)Nc3onc(C)c3C)cc2)ccc1C`, the AC50 is > 100 µM (inactive).

Take `O=C(Cc1cccc(NC(=O)C2CCCN(C(=O)CCc3ccccc3)C2)c1)Nc1cccc(C(=O)N2CCCC2)c1` (stereo unspecified): the AC50 was > 100 µM (inactive).

For `Cc1ccc(S(=O)(=O)NCc2c(-c3ccccc3)noc2C)cc1`, the AC50 is > 100 µM (inactive).

Consider `Cc1c(Cc2ccc3c(c2)OCO3)sc(NC(=O)C2CC2)c1C(N)=O`, for which the AC50 was > 100 µM (inactive). This compound also came in with an AC50 under setting [1] of 34.7 µM.

`Cc1cccc(NC(=O)c2c(C)nn(-c3ccccc3)c2Cl)c1`: the AC50 was > 100 µM (inactive).

Take `Cc1nc(-c2ccc([N+](=O)[O-])cc2)c(-c2ccccc2)o1`: the AC50 is > 100 µM (inactive). Besides, the AC50 under setting [1] was above 100 µM.

Take `c1ccc(-c2nc3c4ccccc4ccn3c2CN2CCOCC2)cc1`: the AC50 is > 100 µM (inactive).

Consider `Cc1cc(C(=O)NCCC2=CCCCC2)ccc1[N+](=O)[O-]`, for which the AC50 is > 100 µM (inactive). Besides, the AC50 under setting [1] is above 100 µM.

`Cc1cc2nc(SCC(=O)O)nc(C)c2cc1C` came in with an AC50 under setting [1] above 100 µM.

For the compound `Cc1ccsc1C(=O)OCC(=O)N1CCc2ccccc2C1`, the AC50 is > 100 µM (inactive). The compound further came in with an AC50 under setting [1] above 100 µM.

With `Cn1cc(CN2CCCC(C(=O)Nc3cccc(-c4cc5ccccc5[nH]4)c3)C2)cn1` (stereo unspecified), under setting [1], the AC50 is above 100 µM.

Consider `O=c1[nH]c(C2CCN(S(=O)(=O)c3ccc4c(c3)OCCO4)CC2)nc2c1nnn2Cc1ccccc1F`, for which the AC50 was > 100 µM (inactive).

As for `Nc1ccccc1Nc1ccc([N+](=O)[O-])cc1[N+](=O)[O-]`, the AC50 is > 100 µM (inactive).

Take `O=C(NCc1ccccc1)c1ccc(-c2ccccc2F)o1`: the AC50 is > 100 µM (inactive). For the same compound, the AC50 under setting [1] was determined as 28.8 µM.

Take `COc1ccc(-c2csc(NC(=O)c3ccoc3C)n2)cc1`: the AC50 was > 100 µM (inactive). This compound gave an AC50 under setting [1] above 100 µM.

Turning to `Cc1ccccc1-n1ncc2c1CC(C)(C)CC2NC(=O)CCN1Cc2ccccc2C1=O` (stereo unspecified), the AC50 is > 100 µM (inactive). Moreover, the AC50 under setting [1] is above 100 µM.

In the case of `Cc1ccc(CNS(=O)(=O)c2ccc3c(c2)NC(=O)CS3)cc1`, the AC50 was > 100 µM (inactive). Under setting [1], the AC50 was found to be 41 µM.

In the case of `O=C(CC(=O)c1cccs1)c1ccncc1`, the AC50 is > 100 µM (inactive). The same compound displayed an AC50 under setting [1] above 100 µM.

Turning to `CCNc1nc(N)c(C(=O)C23CC4CC(CC(C4)C2)C3)s1`, under setting [1], the AC50 was above 100 µM.

On to `CCN(c1ccccc1)S(=O)(=O)c1ccc(Cl)c(NC(=O)CSc2n[nH]c(N)n2)c1`, for which the AC50 was > 100 µM (inactive). The compound also showed an AC50 under setting [1] above 100 µM.

Consider `O=S(=O)(NCc1ccc2c(c1)OCO2)c1ccc2c(c1)oc1ccccc12`, for which the AC50 is > 100 µM (inactive). The same compound yielded an AC50 under setting [1] of 40.8 µM.

Consider `Cc1nn(-c2ccc(N3CCCCC3)nn2)c(C)c1CCC(=O)Nc1ccc(F)cc1`, for which the AC50 is > 100 µM (inactive).

Turning to `COc1cc2c(c(OC)c1OC)C(c1ccc3c(c1)OCO3)CC(=O)O2` (stereo unspecified), the AC50 under setting [1] was above 100 µM.

As to `COc1ccc(CC(=O)Nc2nc(-c3cc(OC)ccc3OC)cs2)cc1`, the AC50 was > 100 µM (inactive). Under setting [1], this compound had an AC50 of 8.91 µM.

For `COc1ccc(C)c2sc(N(CCN(C)C)C(=O)c3ccc(S(=O)(=O)N(C)c4ccccc4)cc3)nc12`, the AC50 under setting [1] is above 100 µM.

Take `COc1ccc([C@H]2C[C@H](O)C[C@@H](CCn3cc(-c4ccccc4)nn3)O2)cc1`: under setting [1], the AC50 is above 100 µM.

On to `Cc1nc(C)c(-c2ccn(S(=O)(=O)c3ccc(Cl)cc3)n2)o1`, for which the AC50 was > 100 µM (inactive).

With `COc1cc(C(=O)NCCc2c[nH]c3ccccc23)ccc1OCc1c(C)noc1C`, the AC50 is > 100 µM (inactive). The compound also displayed an AC50 under setting [1] above 100 µM.

For `COc1ccc(C(=O)CSc2nc3ccccc3n2CC(=O)c2ccccc2)cc1`, the AC50 is > 100 µM (inactive).

As to `CC(OC(=O)CCc1nc2ccccc2c(=O)[nH]1)C(=O)c1ccc(Br)cc1` (stereo unspecified), the AC50 was > 100 µM (inactive).

Regarding `O=C(CCCOc1ccc(Cl)cc1Cl)Nc1ccccc1C(=O)O`, the AC50 is > 100 µM (inactive).

In the case of `COc1ccc(-c2ccccc2)cc1NC(=O)c1ccncc1`, the AC50 is > 100 µM (inactive).

`COc1ccccc1C(=O)Nc1ccc2c(c1)nc1n2CCN(C2CCCCC2)C1`: the AC50 was > 100 µM (inactive).

In turn, `COc1ccc(CNC(=O)c2sc3nc4c(c(C(F)(F)F)c3c2N)CCC4)cc1OC` yielded an AC50 under setting [1] above 100 µM.

With `Nc1ccc(C(=O)OCCc2ccccc2)cc1`, the AC50 was > 100 µM (inactive).

With `CCOc1ccc(-c2nc(-c3cccs3)c(CC(=O)O)s2)cc1OC`, under setting [1], the AC50 is above 100 µM.

With `Cc1ccc2oc(C(=O)N(CCO)Cc3ccccc3)c(C)c2c1`, the AC50 is > 100 µM (inactive). For the same compound, the AC50 under setting [1] was 37.1 µM.

As for `CN(C)C(CNS(=O)(=O)c1cc([N+](=O)[O-])ccc1Cl)c1ccco1` (stereo unspecified), the AC50 was > 100 µM (inactive). Under setting [1], this compound displayed an AC50 above 100 µM.

For `COC(=O)c1c(C)oc(C)c1S(=O)(=O)NC(c1ccccc1)c1ccccc1`, the AC50 is > 100 µM (inactive). The same compound registered an AC50 under setting [1] of 35.7 µM.

On to `Brc1ccc(-n2cnc(-c3ccccc3)c2)cc1`, for which the AC50 is > 100 µM (inactive).

Consider `O=C(NCCc1ccccc1)c1cccc(NC(=O)c2ccccc2)c1`, for which the AC50 was > 100 µM (inactive).

Under setting [1], `O=C(Nc1ccn(Cc2ccc(Cl)cc2)n1)c1ccccc1` displayed an AC50 above 100 µM.

`Cc1noc(NS(=O)(=O)c2ccc(NC(=O)c3cc(-c4ccccc4Cl)nc4ccccc34)cc2)c1C`: the AC50 is > 100 µM (inactive).

As for `CN(C)C(=O)C1C2NC(=S)N(c3cccc(Cl)c3)C1(C)Oc1ccc(Cl)cc12` (stereo unspecified), the AC50 is > 100 µM (inactive). The AC50 under setting [1] is above 100 µM.

The compound `OC(COc1ccc(Cl)cc1)CN1CCN(c2ccccn2)CC1` (stereo unspecified) returned an AC50 under setting [1] above 100 µM.

`O=C(O)c1cc(-c2cccs2)nn1-c1cccc(Cl)c1`: the AC50 is > 100 µM (inactive).

Consider `Cc1ccc(S(=O)(=O)NC(C)C(=O)NCc2ccc(Cl)cc2)cc1` (stereo unspecified), for which, under setting [1], the AC50 is above 100 µM.

Consider `Cc1cc(-c2ccc(C)c(S(=O)(=O)NC(C)Cc3ccco3)c2)on1` (stereo unspecified), for which the AC50 was > 100 µM (inactive). The compound further displayed an AC50 under setting [1] of 46.2 µM.

For `COC(=O)c1ccc(CN2CCCC(CO)(Cc3ccccc3F)C2)cc1` (stereo unspecified), the AC50 was > 100 µM (inactive).

Regarding `NC(=O)c1ccsc1NC(=O)COC(=O)Cc1ccc(F)cc1`, under setting [1], the AC50 is above 100 µM.

For the compound `Cc1onc(-c2ccccc2Cl)c1C(=O)OCC(=O)c1ccccc1`, under setting [1], the AC50 is above 100 µM.

`Cc1n[nH]c(C)c1S(=O)(=O)N1CCCC(C(=O)Nc2ccc(Br)cc2)C1` (stereo unspecified) displayed an AC50 under setting [1] above 100 µM.

Turning to `O=C(CCNC(=O)c1ccco1)Nc1cccc(Br)c1`, the AC50 was > 100 µM (inactive). Besides, under setting [1], the AC50 was above 100 µM.

The compound `CCc1ccc(CN2CCCC(CNS(=O)(=O)c3ccc(OC)cc3)C2)cc1` (stereo unspecified) showed an AC50 under setting [1] above 100 µM.

With `COC(=O)c1c(NC(=O)c2ccccc2C(=O)O)sc2c1CCC2`, the AC50 is > 100 µM (inactive).

Turning to `O=C(NCc1cccnc1)C1CCN(S(=O)(=O)c2cc([N+](=O)[O-])ccc2Cl)CC1`, the AC50 is > 100 µM (inactive).
